Common to all, as to format: cell-based
Assay [1] deals with human lung cancer (A549) cells. Description: MTT tumor cell growth inhibition, human lung cancer (A549). Particulars: Homo sapiens; A549, 48 h culture, MTT method; read-out: IC50 value of target compound against cancer cell proliferation, A549. On the procedure: (§1) Dissolve CHJ compound series with dimethyl sultbxide (DMSO, final concentration 0.4%), and use RPMI-1640 culture medium containing 15% fetal calf serum to prepare 1 mg/mL solution for future use. During drug administration in groups, use the culture medium to dilute it to the concentration needed.
(§2) Cell lines: human lung cancer (A549), Inman ovarian cancer (SKOV3), human melanoma (A375) and human colon cancer (LOVO) cell lines, all purchased from the Cell Bank of the Chinese Academy of Sciences, DMEM containing 15% fetal bovine serum (High Glucose) culture medium, placed in a 37° C., 5% CO2 incubator.
(§3) MTT is an oxidizing yellow dye with the chemical name of 3-(4,5-dimethyl-2-thiazolyl)-2,5-diphenyl-2-H-tetrazoliumbromide tetrazole bromide. The MMT method, also known as the MTT colorimetric method, can test the survival and growth of cells. The method is simple and easily accessible and often used to screet the substance with cytotoxic activity. The basic principle of testing, is that succinodehydrogenase can reduce exogenous MIT so that MTT is reduced to blueviolet crystal Formazan insoluble to water. The crystal deposits in cells. The succinodehydrogenase exists in the mitochondria of living cells, not in the dead cells. Therefore, the chromogenic reaction can only take place in living cells. Then, dissolve the blueviolet crystal Formazan contained in cells with dimethyl sulfoxide (DMSO), and measure its absorbancy with microplate reader so that the count of living cells is reflected indirectly. Within the scope of certain cell count, the amount of blueviolet crystal Formazan formed is positively correlated to the count of living cells.
(§4) Human lung cancer (A549), human ovarian cancer (SKOV3), human melanoma (A375) and human colon cancer (LOVO) ceilsare all adherent. Based on the growth rate of tumor cells, wash the adherent tumor cells in the logarithmic phase and digest them in 0.25% EDTA pancreatic enzyme. Adjust the cell count to 1×10^5/mL and inoculate the cells in 96-pore plate, each pore containing 100 μL. Culture the cells in the 37° C. CO2 incubator, and administer the drug 24 h later. Add pharmaceutical (CJH compound series) of different concentrations to the administration group. Set up 5 dosage groups for each pharmaceutical, respectively 100, 10, 1, 0.1, 0.01 μmol/L. Set up three complex pores for each concentration. Set up blank control, DMSO (0.8%) solvent control and cis-platinum positive control. After 48 h of culture in the 37 ° C. incubator containing 5% CO2, measure the OD value through MTT method and calculate the cell inhibition ratio.
(§5) After 48 h of culture of human lung cancer (A549), human ovarian cancer (SKOV3). human melanoma (A375) and human colon cancer (LOVO) cells, stop it and add 10 μL 0.5% MTT solution to each pore. Place it in the CO2 incubator for 4 h. Remove the liquid from each pore, respectively add 0.2 mL DMSO solution, and oscillate it adequately on the table concentrator under low frequency so that the blueviolet crystal Formazan is dissolved adequately. Place it in the microplate reader and record the OD value at the wavelength of […]. Calculate the average OD value of three parallel pores of different concentrations, and calculate the cell inhibition ratio and IC50 of each tested pharmaceutical under different concentrations based on the average.
(§6) Inhibition ratio (%)=[1-tested sample OD/negative control group OD]×100%.
Background: Tetrazolium assays rely on reduction of a dye to a coloured formazan, in cell work by metabolically active cells.

Assay [2] deals with human ovarian cancer (SKOV3) cells. Description: MTT tumor cell growth inhibition, human ovarian cancer (SKOV3). The note with it: Homo sapiens, SK-OV-3; SKOV3, 48 h culture, MTT method; read-out: IC50 value of target compound against cancer cell proliferation, SKOV3. On the procedure: as §1, §2, §3, §4, §5, §6
Assay [3] deals with human melanoma (A375) cells. Description: MTT tumor cell growth inhibition, human melanoma (A375). Particulars: Homo sapiens, A-375; A375, 48 h culture, MTT method; read-out: IC50 value of target compound against cancer cell proliferation, A375. As to the method: as §1, §2, §3, §4, §5, §6
Assay [4] relates to human colon cancer (LOVO) cells. In words: MTT tumor cell growth inhibition, human colon cancer (LOVO). The note with it: Homo sapiens, 48 h culture, MTT method, read-out: IC50 value of target compound against cancer cell proliferation, LOVO. On the procedure:
as §1, §2, §3, §4, §5, §6

On to `COc1cc(CN(C)CC(O)COc2c(Cl)cccc2Cl)ccc1OCCN1CCC(C)CC1` (centres unmarked) [CHJ02029, 1-(2,6-dichlorophenoxy)-3-((3-methoxy-4-(2-(4-methylpiperidin-1-yl)ethoxy)benzyl) (methyl)amino)propan-2-ol], for which the IC50 in assay [1] is 3550 ± 60 nM; in assay [2], 6300 ± 160 nM; in assay [3], 2430 ± 120 nM; in assay [4], 1870 ± 20 nM.
The corresponding values for `COc1cc(CN(C)CC(O)COc2ccc(Br)c(C(F)(F)F)c2)ccc1OCCN1CCC(C)CC1` (centres unmarked) [CHJ02049, 1-(4-bromo-3-(trifluoromethyl)phenoxy)-3-((3-methoxy-4-(2-(4-methylpiperidin-1-yl)ethoxy)benzyl)(methyl)amino)propan-2-ol] are 520 ± 230 nM, 620 ± 80 nM, 620 ± 40 nM and 1250 ± 30 nM.
The corresponding values for `COc1cc(CN(C)CC(O)COc2cc(C(F)(F)F)ccc2C(F)(F)F)ccc1OCCN1CCC(C)CC1` (centres unmarked) [CHJ02050, 1-(2,5-bis(trifluoromethyl)phenoxy)-3-((3-methoxy-4-(2-(4-methylpiperidin-1-yl)ethoxy)benzyl)(methyl)amino)propan-2-ol] are 1090 ± 1550 nM, 4040 ± 60 nM, 1870 ± 70 nM and 3880 ± 1800 nM.
For `COc1cc(CN(C)CC(O)COc2cccc(Br)c2)ccc1OCCN1CCC(C)CC1` (centres unmarked) [CHJ03001, 1-(3-bromophenoxy)-3-((3-methoxy-4-(2-(4-methylpiperidin-1-yl)ethoxy)benzyl) (methyl)amino)propan-2-ol], in that order: 1300 ± 1030 nM, 2480 nM, 1950 ± 330 nM and 1260 ± 530 nM.
Turning to `COc1cc(CN(C)CC(O)COc2ccccc2Br)ccc1OCCN1CCC(C)CC1` (centres unmarked) [CHJ03003, 1-(2-bromophenoxy)-3-((3-methoxy-4-(2-(4-methylpiperidin-1-yl)ethoxy)benzyl) (methyl)amino)propan-2-ol], the IC50 in assay [1] came out at 6080 ± 900 nM; in assay [2], 3000 ± 990 nM; in assay [3], 5950 ± 420 nM; in assay [4], 700 ± 260 nM.
The corresponding values for `COc1cc(CN(C)CC(O)COc2ccccc2C(C)C)ccc1OCCN1CCC(C)CC1` (centres unmarked) [CHJ03004, 1(2-isopropylphenoxy)-3-((3-methoxy-4-(2-(4-methylpiperidin-1yl)ethoxy)benzyl) (methyl)amino)propan-2-ol] are 2100 ± 1250 nM, 6190 ± 250 nM, 720 ± 800 nM and 2540 ± 100 nM.
For `COc1cc(CN(C)CC(O)COc2ccc(Br)cc2OC)ccc1OCCN1CCC(C)CC1` (centres unmarked) [CHJ03005, 1-(4-bromo-2-methoxypbenoxy)-3-((3-methoxy-4-(2-(4-methylpiperidin-1-yl)ethoxy)benzyl)(methyl)amino)propan-2-ol], in that order: 15600 ± 160 nM, 3990 ± 210 nM, 5600 ± 810 nM and 6660 ± 110 nM.
Turning to `COc1cc(CN(C)CC(O)COc2ccc(Br)cc2)ccc1OCCN1CCC(C)CC1` (centres unmarked) [CHJ03014], the IC50 amounted to 1090 ± 60 nM in assay [1], 6190 ± 620 nM in assay [2] and 530 ± 150 nM in assay [4].
The corresponding values for `COc1cc(CN(C)CC(O)COc2cccc(C(C)C)c2)ccc1OCCN1CCC(C)CC1` (centres unmarked) [CHJ03015, 1-(3-isopropylphenoxy)-3-((3-methoxy-4-(2-(4-methylpiperidin-1-yl)ethoxy)benzyl) (methyl)amino)propan-2-ol] are 1030 ± 130 nM, 4470 ± 1620 nM and 550 ± 210 nM.
`COc1cccc(OCC(O)CN(C)Cc2ccc(OCCN3CCC(C)CC3)c(OC)c2)c1` (centres unmarked) [CHJ03017, 1-((3-methoxy-4-(2-(4-methylpiperidin-1-yl)ethoxy)benzyl)(methyl)amino)-3-(3-methoxyphenoxy)propan2-ol]: the IC50 is 17200 ± 790 nM in assay [1], 6210 ± 1040 nM in assay [2], 8680 ± 110 nM in assay [3] and 2440 ± 30 nM in assay [4].
The corresponding values for `COc1cc(CN(C)CC(O)COc2cc(Br)ccc2F)ccc1OCCN1CCC(C)CC1` (centres unmarked) [CHJ03018] are 18800 ± 1060 nM, 1790 ± 230 nM, 3130 ± 60 nM and 1720 ± 1580 nM.
For `COc1cc(CN(C)CC(O)COc2ccc(Cl)c(Br)c2)ccc1OCCN1CCC(C)CC1` (centres unmarked) [CHJ03043, 1-(3-bromo-4-chlorophenoxy)-3-((3-methoxy-4-(2-(4-methylpiperidia-1-yl)ethoxy)benzyl)(methyl)amino)propan-2-ol], in that order: 2500 ± 1320 nM, 2900 ± 190 nM, 540 ± 260 nM and 950 ± 410 nM.
For `COc1cc(CN(C)CC(O)COc2ccc(C)c(Br)c2)ccc1OCCN1CCC(C)CC1` (centres unmarked) [CHJ04010, 1-(3-bromo-4-methylphenoxy)-3-((3-methoxy-4-(2-(4-methylpiperidin-1-yl)ethoxy)benzyl)(methyl)amino)propan-2-ol], the results for the IC50 in assay [2], in assay [3] and in assay [4] were 4960 ± 1260 nM, 450 ± 460 nM and 2780 ± 230 nM, respectively.
Take `COc1cc(CN(C)CC(O)COc2cc(C(F)(F)F)ccc2Br)ccc1OCCN1CCC(C)CC1` (centres unmarked) [CHJ04011]: the IC50 stood at 4050 ± 1120 nM in assay [1], 2410 ± 1030 nM in assay [2], 480 ± 280 nM in assay [3] and 1010 ± 80 nM in assay [4].
The corresponding values for `COc1cc(CN(C)CC(O)COc2cc(Cl)cc(Cl)c2)ccc1OCCN1CCC(C)CC1` (centres unmarked) [CHJ04012, 1-(3,5-dichlorophenoxy)-3-((3-methoxy-4-(2-(4-methylpiperidin-1-yl)ethoxy)benzyl) (methyl)amino)propan-2-ol] are 6380 ± 70 nM, 4340 ± 320 nM, 1240 ± 1010 nM and 2120 ± 40 nM.
For `COc1cc(CN(C)CC(O)COc2ccc(F)c(Br)c2)ccc1OCCN1CCC(C)CC1` (centres unmarked) [CHJ04020, 1-(3-bromo-4-fluorophenoxy)-3-((3-methoxy-4-(2-(4-methylpiperidin-1-yl)ethoxy)benzyl)(methyl)amino)propan-2-ol], in that order: 1380 ± 1140 nM, 3400 ± 1170 nM, 1600 ± 920 nM and 3830 ± 1800 nM.
For `COc1cc(CN(C)CC(O)COc2cc(F)cc(Br)c2)ccc1OCCN1CCC(C)CC1` (centres unmarked) [CHJ04023], in that order: 5440 ± 2540 nM, 8030 ± 2770 nM, 810 ± 330 nM and 3070 ± 1620 nM.
As to `COc1cc(CN(C)CC(O)COc2cccc(Cl)c2)ccc1OCCN1CCC(C)CC1` (centres unmarked) [CHJ04024], the IC50 is 5450 ± 1030 nM in assay [1], 1370 ± 340 nM in assay [2], 980 ± 760 nM in assay [3] and 18600 ± 3220 nM in assay [4].
For `COc1cc(CN(C)CC(O)COc2cccc(C(F)(F)F)c2)ccc1OCCN1CCC(C)CC1` (centres unmarked) [CHJ04025, 1-((3-methoxy-4-(2-(4-methylpiperidin-1-yl)ethoxy)benzyl)(methyl)amino)-3-(3-(trifluoromethyl)phenoxy)propan-2-ol], in that order: 4210 ± 2240 nM, 3320 ± 1020 nM, 2340 ± 1630 nM and 2550 ± 1650 nM.
For `COc1cc(CN(C)CC(O)COc2cc(C(F)(F)F)ccc2Br)ccc1OCCN1CCCC1` (centres unmarked) [CHJ04065, 1-(-bromo-5-(trifluoromethyl)phenoxy)-3-((3-methoxy-4-(2-(pyrrolidin-1-yl)ethoxy)benzyl)(methyl)amino)propan-2-ol], the results for the IC50 in assay [1], in assay [2] and in assay [4] were 25500 ± 2110 nM, 27100 ± 1620 nM and 3140 ± 1060 nM, respectively.
With `COc1cc(CN(C)CC(O)COc2ccccc2OC)ccc1OCCN1CCC(C)CC1` (centres unmarked) [CHJ04086], the IC50 in assay [3] is 34700 ± 3420 nM.
